{"source": "patent US20210008070A1", "about": "“TARGETING MINIMAL RESIDUAL DISEASE IN CANCER WITH CD36 ANTAGONISTS” (VIB VZW, priority 2018, published 2021)", "key": {"[1]": {"system": "GFRA2-positive MEL006 cells", "assay": "FACS of GFRA2-positive cells in MEL006 cultures", "method": "Cells were resuspended in FACS sorting buffer (culture medium supplied with 1% EDTA 100 mM)."}, "[2]": {"system": "MM52 cells", "assay": "Colony assay / Cell Titer Glo in short-term melanoma culture MM52", "type": "cell-based, human", "protocol": "D) Colony assay performed over 7 days.\nE) and Cell Titer Glo assay performed after 6 days after incubation of the short culture melanoma line MM052 with MEK inhibitor trametinib (TRA; […]; 1 uM), FAK inhibitor PF-562271 (1 uM) and RXRG antagonist HX531 (2 uM)\nCells were grown to near confluency on 12well plates and treated with the indicated drug combinations for the indicated time period. Cells were washed once with PBS, stained with crystal violet (1% crystal violet w/v, 35% methanol v/v) for 15 min, washed with PBS and destained in tap water.\n1.15. Cell Titer Glo 2500 cells were plated onto a 96 well plate and treated with the indicated drug combinations for the indicated time period. Cell Titer Glo assay was performed according to the manufacturer's instruction (Promega) and luminescence was measured on a VictorX3 (Perkin Elmer)."}, "[3]": {"system": "RAR receptors", "conditions": "cited from earlier work"}}, "data": [{"smiles": "CN(c1ncccc1CNc1nc(Nc2ccc3c(c2)CC(=O)N3)ncc1C(F)(F)F)S(C)(=O)=O", "note": "[PF-562271]", "values": [{"measurement": "drug-dependent emergence of the GFRA2-high cell population", "setting": "[1]; added to DT", "result": "diminished the drug-dependent emergence of the GFRA2-high cell population in a dose-dependent manner"}]}, {"smiles": "CN1c2ccc([N+](=O)[O-])cc2N=C(c2ccc(C(=O)O)cc2)c2cc3c(cc21)C(C)(C)CCC3(C)C", "note": "[HX531]", "values": [{"measurement": "sensitivity of MM52 cells to trametinib", "setting": "[2]; HX531 plus trametinib", "result": "sensitized these cells to trametinib"}, {"measurement": "drug-dependent induction of GFRA2-positive cells", "setting": "[1]; with IC50 concentrations of BRAF and MEK-inhibitors", "result": "completely inhibited emergence"}]}, {"smiles": "CC1(C)CCC(C)(C)c2cc(C3(c4ccc(C(=O)O)cc4)OCCO3)ccc21", "note": "[SR 11237]", "values": [{"measurement": "RAR activity", "setting": "[3]", "result": "devoid of any RAR activity"}]}, {"smiles": "C=C(c1ccc(C(=O)O)cc1)c1cc2c(cc1C)C(C)(C)CCC2(C)C", "note": "[bexarotene]", "values": [{"measurement": "long-term growth inhibition", "setting": "[2]; alone", "result": "did not induce measurable long-term growth inhibition"}, {"measurement": "sensitivity to a combination of trametinib/FAK-inhibitors", "setting": "[2]; bexarotene added", "result": "increased the sensitivity"}, {"measurement": "sensitivity of MM52 cells to trametinib", "setting": "[2]; bexarotene at concentrations as low as 10 nM", "result": "significantly decreased the sensitivity"}, {"measurement": "cells with cell death", "setting": "[2]; bexarotene with trametinib/FAK-inhibitors, after 3 days of treatment", "result": "~100", "unit": "%"}]}]}
